Each structure is given as a SMILES string.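 Briefly, cells in 96-well plates were exposed to five compound concentrations for 48 h, and endpoints were estimated by linear interpolation. Definition used: TGI = concentration required for complete inhibition of growth.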

Some test systems named below: A549 NSCLC; CCRF-CEM leukemia; HCT-116 colon; HL-60(TB) leukemia; KM12 colon; LOX IMVI melanoma; LXFL 529 NSCLC; MALME-3M melanoma; NCI-H226 lung; OVCAR-3 ovarian; OVCAR-4 ovarian; OVCAR-5 ovarian; TK-10 renal; U251 CNS; CAKI-1 renal; SK-OV-3 ovarian; HCC-2998 colon; MDA-MB-231 breast; NCI/ADR-RES ovarian; PC-3 prostate.
Assay in all cases: NCI tumour cell line growth inhibition, 48 h

With `BrC1=CCC23CC=C(Br)[C@H]4CC2(COC3)C[C@@H]1O4` (stereo not given in full), the TGI is greater than 100 µM in the experiment on A549 NSCLC; 79.5 µM in the experiment on CCRF-CEM leukemia; greater than 100 µM in the experiment on HCT-116 colon; 38.1 µM in the experiment on HL-60(TB) leukemia; greater than 100 µM in the experiment with KM12 colon; greater than 100 µM in the experiment with LOX IMVI melanoma. Also, the TGI in the experiment on LXFL 529 NSCLC is greater than 100 µM; with MALME-3M melanoma it was greater than 100 µM; in the experiment with NCI-H226 lung, greater than 100 µM; with OVCAR-3 ovarian, greater than 100 µM; with OVCAR-4 ovarian, greater than 100 µM; with OVCAR-5 ovarian it was 86.2 µM. The TGI in the experiment on TK-10 renal and in the experiment on U251 CNS was greater than 100 µM each time.

`O=c1cc(-c2ccccc2)c2ccccc2[nH]1`: the TGI in the experiment on A549 NSCLC is greater than 100 µM; with CAKI-1 renal, 90.2 µM; in the experiment with CCRF-CEM leukemia, greater than 100 µM; in the experiment with HCT-116 colon, greater than 100 µM; in the experiment on HL-60(TB) leukemia, greater than 100 µM; with KM12 colon, greater than 100 µM. The TGI in the experiment on LOX IMVI melanoma was greater than 100 µM; in the experiment on LXFL 529 NSCLC, greater than 100 µM; in the experiment on MALME-3M melanoma it was 90.9 µM; in the experiment with NCI-H226 lung, 99.8 µM; with OVCAR-4 ovarian it was greater than 100 µM; in the experiment on OVCAR-5 ovarian it was greater than 100 µM. Besides, the TGI is 84.8 µM in the experiment with SK-OV-3 ovarian, greater than 100 µM with TK-10 renal and greater than 100 µM in the experiment with U251 CNS.

Take `Cc1ccc(NCC(=O)N2CC(=O)Nc3ccccc32)c(C)c1`: the TGI in the experiment with A549 NSCLC, in the experiment on CAKI-1 renal, in the experiment with CCRF-CEM leukemia, with HCC-2998 colon, in the experiment with HCT-116 colon and in the experiment with HL-60(TB) leukemia was greater than 100 µM in each case. In addition, the TGI in the experiment on KM12 colon, in the experiment on LOX IMVI melanoma, with LXFL 529 NSCLC, in the experiment with MALME-3M melanoma, in the experiment on NCI-H226 lung and with OVCAR-3 ovarian was greater than 100 µM each time. The TGI in the experiment on OVCAR-4 ovarian, in the experiment on OVCAR-5 ovarian, with SK-OV-3 ovarian, in the experiment with TK-10 renal and in the experiment with U251 CNS was greater than 100 µM each time.

Take `Cc1c2ccncc2c(C)c2c1[nH]c1ccc(OC(C)C)cc12`: the TGI in the experiment with A549 NSCLC is 3.1 µM; in the experiment on CAKI-1 renal, 2.96 µM; in the experiment with CCRF-CEM leukemia, 7.68 µM; in the experiment with HCC-2998 colon, 3.48 µM; with HCT-116 colon it was 2.04 µM; in the experiment with HL-60(TB) leukemia, 4.46 µM. The TGI is 2.86 µM in the experiment on KM12 colon; 2.51 µM in the experiment on LOX IMVI melanoma; 2.1 µM in the experiment with LXFL 529 NSCLC; 3.16 µM in the experiment on MALME-3M melanoma; 3.05 µM in the experiment with NCI-H226 lung; 2.98 µM with OVCAR-3 ovarian. For the same compound, the TGI in the experiment with OVCAR-4 ovarian came out at 3.14 µM; with OVCAR-5 ovarian, 2.87 µM; in the experiment on SK-OV-3 ovarian, 2.77 µM; with TK-10 renal, 3.37 µM; in the experiment on U251 CNS, 2.94 µM.

With `CN(Cc1ccccc1)C(=NC#N)N(Cc1ccccc1)Cc1ccccc1`, the TGI with A549 NSCLC is greater than 100 µM; with CAKI-1 renal it was 58.6 µM; with CCRF-CEM leukemia, greater than 100 µM; with HCC-2998 colon it was greater than 87.1 µM; in the experiment on HCT-116 colon it was greater than 55.3 µM; in the experiment on HL-60(TB) leukemia, greater than 100 µM. Moreover, the TGI in the experiment on KM12 colon came out at 44.4 µM; with LOX IMVI melanoma, 35 µM; in the experiment with LXFL 529 NSCLC it was 70.2 µM; in the experiment with MALME-3M melanoma it was 67.1 µM; in the experiment with MDA-MB-231 breast, 58.7 µM; with NCI-H226 lung, 67.5 µM. In addition, the TGI is 56.1 µM with NCI/ADR-RES ovarian; 44.7 µM with OVCAR-3 ovarian; greater than 93 µM in the experiment with OVCAR-4 ovarian; 94.7 µM with OVCAR-5 ovarian; 39.5 µM in the experiment on PC-3 prostate; greater than 90.3 µM in the experiment with SK-OV-3 ovarian. In addition, the TGI in the experiment with TK-10 renal is greater than 100 µM; in the experiment with U251 CNS it was 96.9 µM.

For `[N-]=[N+]=NC(CCl)c1cn([C@H]2C[C@H](O)[C@@H](CO)O2)c(=O)[nH]c1=O` (stereo not given in full), the TGI in the experiment on A549 NSCLC, with CAKI-1 renal, in the experiment on CCRF-CEM leukemia, in the experiment on HCC-2998 colon, in the experiment with HCT-116 colon and with HL-60(TB) leukemia was greater than 100 µM in each case. Moreover, the TGI with KM12 colon, in the experiment with LOX IMVI melanoma, in the experiment with LXFL 529 NSCLC, in the experiment on MALME-3M melanoma, in the experiment on NCI-H226 lung and in the experiment with OVCAR-3 ovarian was greater than 100 µM each time. Also, the TGI with OVCAR-5 ovarian, in the experiment on SK-OV-3 ovarian, with TK-10 renal and in the experiment on U251 CNS was greater than 100 µM throughout.

`CC(C)=CC1C[C@H](C2CC=C3C2(C)CCC2[C@@]3(C)C(=O)CC3[C@]2(C)C=CC(=O)[C@]3(C)CO)CO1` (stereo not given in full): the TGI in the experiment on A549 NSCLC was found to be 52.4 µM; with CAKI-1 renal, 49 µM; with CCRF-CEM leukemia, 8.71 µM; with HCC-2998 colon it was 30 µM; with HCT-116 colon, 10.2 µM; in the experiment with HL-60(TB) leukemia, 9.42 µM. The TGI is 19.9 µM in the experiment on KM12 colon; 9.45 µM in the experiment with LOX IMVI melanoma; 12.1 µM in the experiment with LXFL 529 NSCLC; 16.8 µM with MALME-3M melanoma; 13.2 µM with OVCAR-3 ovarian; 41.3 µM in the experiment with OVCAR-4 ovarian. Further, the TGI in the experiment with OVCAR-5 ovarian was found to be 37.8 µM; in the experiment with SK-OV-3 ovarian, 39.6 µM; in the experiment with TK-10 renal, 52.4 µM; in the experiment on U251 CNS it was 21.7 µM.

The values are drawn from PubChem BioAssay (NCI).
